Here are results for two molecules from patent publication US20260184662A1, “COMPOSITE OF ACID AND SALT, AND PREPARATION METHOD THEREFOR” (NANJING NUTRABUILDING BIO-TECH CO., LTD., priority 2022, published 2026).

The first data set in a line: Stability of complexes at 30-80° C. Particulars: 30° C. It counts as physicochemical. The source says: For R-3-hydroxybutyric acid, potassium R-3-hydroxybutyrate, mixture of R-3-hydroxybutyric acid and potassium R-3-hydroxybutyrate, and R-3-hydroxybutyric acid·potassium R-3-hydroxybutyrate complex of Example 1, […]
For 3-hydroxybutyric acid, potassium 3-hydroxybutyrate, mixture of 3-hydroxybutyric acid and potassium 3-hydroxybutyrate, and 3-hydroxybutyric acid·potassium 3-hydroxybutyrate complex of Example 7, […]
For S-3-hydroxybutyric acid, potassium S-3-hydroxybutyrate, mixture of S-3-hydroxybutyric acid and potassium S-3-hydroxybutyrate, and S-3-hydroxybutyric acid·potassium S-3-hydroxybutyrate complex of Example 13, […]
For R-3-hydroxybutyric acid, calcium R-3-hydroxybutyrate, mixture of R-3-hydroxybutyric acid and calcium R-3-hydroxybutyrate, and R-3-hydroxybutyric acid·calcium R-3-hydroxybutyrate complex of Example 19, […]
For 3-hydroxybutyric acid, calcium 3-hydroxybutyrate, mixture of 3-hydroxybutyric acid and calcium 3-hydroxybutyrate, and 3-hydroxybutyric acid·calcium 3-hydroxybutyrate complex of Example 25, […]
For S-3-hydroxybutyric acid, calcium S-3-hydroxybutyrate, mixture of S-3-hydroxybutyric acid and calcium S-3-hydroxybutyrate, and S-3-hydroxybutyric acid·calcium S-3-hydroxybutyrate complex of Example 31, […]
For R-3-hydroxybutyric acid, magnesium R-3-hydroxybutyrate, mixture of R-3-hydroxybutyric acid and magnesium R-3-hydroxybutyrate, and R-3-hydroxybutyric acid·magnesium R-3-hydroxybutyrate complex of Example 37, […]
For 3-hydroxybutyric acid, magnesium 3-hydroxybutyrate, mixture of 3-hydroxybutyric acid and magnesium 3-hydroxybutyrate, and 3-hydroxybutyric acid·magnesium 3-hydroxybutyrate complex of Example 43, […]
For S-3-hydroxybutyric acid, magnesium S-3-hydroxybutyrate, mixture of S-3-hydroxybutyric acid and magnesium S-3-hydroxybutyrate, and S-3-hydroxybutyric acid·magnesium S-3-hydroxybutyrate complex of Example 49, […]
For R-3-hydroxypentanoic acid, sodium R-3-hydroxypentanoate, mixture of R-3-hydroxypentanoic acid and sodium R-3-hydroxypentanoate, and R-3-hydroxypentanoic acid·sodium R-3-hydroxypentanoate complex of Example 55, […]
For 3-hydroxypentanoic acid, sodium 3-hydroxypentanoate, mixture of 3-hydroxypentanoic acid and sodium 3-hydroxypentanoate, and 3-hydroxypentanoic acid·sodium 3-hydroxypentanoate complex of Example 61, […]
For S-3-hydroxypentanoic acid, sodium S-3-hydroxypentanoate, mixture of S-3-hydroxypentanoic acid and sodium S-3-hydroxypentanoate, and S-3-hydroxypentanoic acid·sodium S-3-hydroxypentanoate complex of Example 67, […]
With `C[C@@H](O)CC(=O)O.C[C@@H](O)CC(=O)[O-].[K+]` [R-3-hydroxybutyric acid·potassium R-3-hydroxybutyrate], the Stability result was “unchanged”.
Regarding `C[C@H](O)CC(=O)O` [S-3-hydroxybutyric acid], the Stability entry is reported as “unchanged”.

Still in this data set, the particulars now being: 40° C.
`C[C@@H](O)CC(=O)O.C[C@@H](O)CC(=O)[O-].[K+]` [R-3-hydroxybutyric acid·potassium R-3-hydroxybutyrate]: the Stability result is “unchanged”.

The data set is the same for the next values; noted with them: 50° C.
Take `C[C@@H](O)CC(=O)O.C[C@@H](O)CC(=O)[O-].[K+]` [R-3-hydroxybutyric acid·potassium R-3-hydroxybutyrate]: the Stability entry is listed as “unchanged”.
The same measure, in the same setting: in the case of `C[C@H](O)CC(=O)O` [S-3-hydroxybutyric acid] it was “melted”.

Still in this data set, the particulars now being: 60° C.
On to `C[C@@H](O)CC(=O)O.C[C@@H](O)CC(=O)[O-].[K+]` [R-3-hydroxybutyric acid·potassium R-3-hydroxybutyrate], for which the Stability result was “unchanged”.
Still for that read-out and setting: in the case of `C[C@H](O)CC(=O)O` [S-3-hydroxybutyric acid] it was “melted”.

Still in this data set, the particulars now being: 70° C.
Turning to `C[C@H](O)CC(=O)O` [S-3-hydroxybutyric acid], the Stability result is listed as “melted”.

Staying with this data set, now noted: 80° C.
On to `C[C@@H](O)CC(=O)O.C[C@@H](O)CC(=O)[O-].[K+]` [R-3-hydroxybutyric acid·potassium R-3-hydroxybutyrate], for which the Stability entry is listed as “melted”.
Still for that read-out and setting: in the case of `C[C@H](O)CC(=O)O` [S-3-hydroxybutyric acid] it was “melted”.

A short description of the next data set: Determination of moisture contents with KF moisture meter at different time points. It counts as physicochemical. The following applies: temperature 23° C., humidity 92.5%, 30 min. The source says: For R-3-hydroxybutyric acid, potassium R-3-hydroxybutyrate, mixture of R-3-hydroxybutyric acid and potassium R-3-hydroxybutyrate, and R-3-hydroxybutyric acid·potassium R-3-hydroxybutyrate complex of Example 1, under a certain condition, KF moisture meter was used to determine the moisture contents at different time points.
For 3-hydroxybutyric acid, potassium 3-hydroxybutyrate, mixture of 3-hydroxybutyric acid and potassium 3-hydroxybutyrate, and 3-hydroxybutyric acid·potassium 3-hydroxybutyrate complex of Example 7, under a certain condition, KF moisture meter was used to determine the moisture contents at different time points.
For S-3-hydroxybutyric acid, potassium S-3-hydroxybutyrate, mixture of S-3-hydroxybutyric acid and potassium S-3-hydroxybutyrate, and S-3-hydroxybutyric acid·potassium S-3-hydroxybutyrate complex of Example 13, under a certain condition, KF moisture meter was used to determine the moisture contents at different time points.
For R-3-hydroxybutyric acid, calcium R-3-hydroxybutyrate, mixture of R-3-hydroxybutyric acid and calcium R-3-hydroxybutyrate, and R-3-hydroxybutyric acid·calcium R-3-hydroxybutyrate complex of Example 19, under a certain condition, KF moisture meter was used to determine the moisture contents at different time points.
For 3-hydroxybutyric acid, calcium 3-hydroxybutyrate, mixture of 3-hydroxybutyric acid and calcium 3-hydroxybutyrate, and 3-hydroxybutyric acid·calcium 3-hydroxybutyrate complex of Example 25, under a certain condition, KF moisture meter was used to determine the moisture contents at different time points.
For S-3-hydroxybutyric acid, calcium S-3-hydroxybutyrate, mixture of S-3-hydroxybutyric acid and calcium S-3-hydroxybutyrate, and S-3-hydroxybutyric acid·calcium S-3-hydroxybutyrate complex of Example 31, under a certain condition, KF moisture meter was used to determine the moisture contents at different time points.
For R-3-hydroxybutyric acid, magnesium R-3-hydroxybutyrate, mixture of R-3-hydroxybutyric acid and magnesium R-3-hydroxybutyrate, and R-3-hydroxybutyric acid·magnesium R-3-hydroxybutyrate complex of Example 37, under a certain condition, KF moisture meter was used to determine the moisture contents at different time points.
For 3-hydroxybutyric acid, magnesium 3-hydroxybutyrate, mixture of 3-hydroxybutyric acid and magnesium 3-hydroxybutyrate, and 3-hydroxybutyric acid·magnesium 3-hydroxy butyrate complex of Example 43, under a certain condition, KF moisture meter was used to determine the moisture contents at different time points.
For S-3-hydroxybutyric acid, magnesium S-3-hydroxybutyrate, mixture of S-3-hydroxybutyric acid and magnesium S-3-hydroxybutyrate, and S-3-hydroxybutyric acid·magnesium S-3-hydroxybutyrate complex of Example 49, under a certain condition, KF moisture meter was used to determine the moisture contents at different time points.
For R-3-hydroxypentanoic acid, sodium R-3-hydroxypentanoate, mixture of R-3-hydroxypentanoic acid and sodium R-3-hydroxypentanoate, and R-3-hydroxypentanoic acid·sodium R-3-hydroxypentanoate complex of Example 55, under a certain condition, KF moisture meter was used to determine the moisture contents at different time points.
For 3-hydroxypentanoic acid, sodium 3-hydroxypentanoate, mixture of 3-hydroxypentanoic acid and sodium 3-hydroxypentanoate, and 3-hydroxypentanoic acid·sodium 3-hydroxypentanoate complex of Example 61, under a certain condition, KF moisture meter was used to determine the moisture contents at different time points.
For S-3-hydroxypentanoic acid, sodium S-3-hydroxypentanoate, mixture of S-3-hydroxypentanoic acid and sodium S-3-hydroxypentanoate, and S-3-hydroxypentanoic acid·sodium S-3-hydroxypentanoate complex of Example 67, under a certain condition, KF moisture meter was used to determine the moisture contents at different time points.
As for `C[C@@H](O)CC(=O)O.C[C@@H](O)CC(=O)[O-].[K+]` [R-3-hydroxybutyric acid·potassium R-3-hydroxybutyrate], the “moisture content (%)” value worked out at 0.64%.
Still for that read-out and setting: for `C[C@H](O)CC(=O)O` [S-3-hydroxybutyric acid] the value was 1.23%.

Staying with this data set, now noted: temperature 23° C., humidity 92.5%, 1 h.
In the case of `C[C@@H](O)CC(=O)O.C[C@@H](O)CC(=O)[O-].[K+]` [R-3-hydroxybutyric acid·potassium R-3-hydroxybutyrate], the “moisture content (%)” value stood at 1.24%.
The same measure, in the same setting: in the case of `C[C@H](O)CC(=O)O` [S-3-hydroxybutyric acid] it was 2.28%.

The data set is the same for the next values; noted with them: temperature 23° C., humidity 92.5%, 2 h.
For `C[C@@H](O)CC(=O)O.C[C@@H](O)CC(=O)[O-].[K+]` [R-3-hydroxybutyric acid·potassium R-3-hydroxybutyrate], the “moisture content (%)” value turned out to be 1.89%.
As for `C[C@H](O)CC(=O)O` [S-3-hydroxybutyric acid], the “moisture content (%)” value is recorded as 4.05%.

Staying with this data set, now noted: temperature 23° C., humidity 92.5%, 4 h.
Consider `C[C@@H](O)CC(=O)O.C[C@@H](O)CC(=O)[O-].[K+]` [R-3-hydroxybutyric acid·potassium R-3-hydroxybutyrate], for which the “moisture content (%)” value is on record as 3.66%.
Same read-out and setting: for `C[C@H](O)CC(=O)O` [S-3-hydroxybutyric acid] the value was 6.32%.

The same data set, now with this note: temperature 23° C., humidity 92.5%, 6 h.
With `C[C@@H](O)CC(=O)O.C[C@@H](O)CC(=O)[O-].[K+]` [R-3-hydroxybutyric acid·potassium R-3-hydroxybutyrate], the “moisture content (%)” value is recorded as 5.89%.
Still for that read-out and setting: for `C[C@H](O)CC(=O)O` [S-3-hydroxybutyric acid] the value was 9.53%.

The data set is the same for the next values; noted with them: temperature 23° C., humidity 92.5%, 7 h.
As to `C[C@@H](O)CC(=O)O.C[C@@H](O)CC(=O)[O-].[K+]` [R-3-hydroxybutyric acid·potassium R-3-hydroxybutyrate], the “moisture content (%)” value worked out at 6.78%.
On the same count and under the same terms, in the case of `C[C@H](O)CC(=O)O` [S-3-hydroxybutyric acid] it was 10.62%.

Still in this data set, the particulars now being: temperature 23° C., humidity 92.5%, 11 h.
On to `C[C@@H](O)CC(=O)O.C[C@@H](O)CC(=O)[O-].[K+]` [R-3-hydroxybutyric acid·potassium R-3-hydroxybutyrate], for which the “moisture content (%)” value was 9.77%.
Same read-out and setting: for `C[C@H](O)CC(=O)O` [S-3-hydroxybutyric acid] the value was 17.08%.

Staying with this data set, now noted: temperature 23° C., humidity 92.5%, 22 h.
As to `C[C@@H](O)CC(=O)O.C[C@@H](O)CC(=O)[O-].[K+]` [R-3-hydroxybutyric acid·potassium R-3-hydroxybutyrate], the “moisture content (%)” value came out at 19.45%.
For the molecule `C[C@H](O)CC(=O)O` [S-3-hydroxybutyric acid], the “moisture content (%)” value was 32.95%.
